Experimental data: patent EP0537092A1, “Infracellular vesicular vectors and their application in cosmetic and medical compositions and culture media” (priority 1991, dated 1993)
Read-outs that look alike come from different tables or passages of the source.

How the values were obtained:
Format in all cases: cell-based, humaine
collagène de type III = test: radioimmunoassay of soluble collagen type III in fibroblast culture supernatant
Description: (§1) Les résultats des essais présentés ci-après ont été obtenus selon la méthodologie suivante : Conditions de culture : les fibroblastes sont obtenus à partir d'explants de peau humaine. Les cellules sont maintenues en culture dans du milieu DMEM (Gibco) additionné de 10 % de sérum de veau foetal (Gibco) et d'antibiotiques (pénicilline 100 U/ml, streptomycine 100 µg/ml).
(§2) Les subcultures sont réalisées par trypsination (Trypsin-EDTA, Gibco). Les cellules sont utilisées du 2e au 10e passage.
(§3) Conditions de traitements : Les cultures de fibroblastes témoins se réferent aux cultures avec vecteurs sans principe actif, en quantité similaire aux autres traitements. Les cultures traitées avec la molécule en solution se réfèrent aux conditions de la culture témoin et de la molécule sous forme soluble.
(§4) Les cultures traitées avec la forme vectoriale de la molécule impliquent que la molécule active soit inclue préalablement dans les vecteurs.
(§5) Evaluation des collagènes solubles par dosage radioimmunologique : On prélève 100 µl de surnageant de culture et on y ajoute 100 µl d'anticorps anticollagène de type I ou anti-collagène de type III et 200 µl de PBS.

[1] = tested on: collagénase interstitielle (MMP-1); test: collagenase activity in the culture medium of fibroblasts; settings: for Collagénase: Temps : 48 h, factor of change (summary table)
Description: as §1, §2, §3, §4
Mesure de l'activité collagénasique dans le milieu de culture
On mesure la collagénase interstitielle qui dégrade les collagènes interstitiels natifs de type I-III. • a) Préparation du substrat : le collagène de type I, marqué au carbone-14, en solution dans CH3COOH 0,1 M est neutralisé à pH 7,4 par du Tris 1 M et dilué avec le tampon NaCl 0,15 M/CaCl2, 4 mM/Tris-HCl 50 mM, pH 7,4 contenant du NEM 0,5 mM et du PMSF 0,1mM à raison de […] substrat (= 10000 cpm/essai). • b) Dosage de la collagénase: 100 µl de milieu sont activés par 10 µl de trypsine (1 mg/ml) à 37°C pendant 10 mn, suivi de l'addition de 10 µl de SBTI (5 mg/ml): 10 mn à température ambiante. 100 µl de milieu sont aussi testés sans activation par la trypsine (mesure de la forme active de l'enzyme).
Le substrat (10000 cpm/essai) est ajouté, éventuellement en présence d'EDTA 25 mM, le volume final étant de 250 µl. La réaction se déroule pendant 18 h à 25°C puis est stoppée par addition de 20 µl d'EDTA 250 mM (10 mn à température ambiante).Le mélange est ensuite chauffé 10 mn à 39°C.
Le collagène non dégradé est précipité par l'éthanol à la concentration finale de 18 % (30 mn à température ambiante).
Finalement, le mélange est centrifugé à 6000 g pendant 30 mn à 4°C. Des aliquots de 200 µl des surnageants sont mélangés avec 5 ml de liquide scintillant aqueux puis comptés pour leur radioactivité.
Une unité de collagénase est définie comme la quantité d'enzyme nécessaire pour dégrader 1 µg de collagène natif par heure à 25°C.

fibroblastes [2] = test: summary conclusion on modulation of fibroblast activity (Tableau 10); settings: Temps : 48 h
Source text: Le tableau 10 ci-après résume les résultats obtenus. TABLEAU 10
Ce tableau montre bien la capacité qu'ont les vecteurs selon l'invention à moduler l'activité des fibroblastes lorsqu'ils portent à leur surface certaines fonctions hydrophiles fixées sur ledit vecteur par un ester ou une amide d'acide gras.

fibroblastes [3] = settings: for prolifération des fibroblastes traités avec le Palmitate d'hydroxyproline: 10^4 cellules par puit
Description: as §1, §2, §3, §4
[…] Puis on ajoute le sel de tétrazolium jaune (5 mg / ml). Il est réduit par les réductases mitochondriales des cellules vivantes en un produit formazan violet qui est ensuite solubilisé par de l'HCl 0,04 N dans de l'isopropanol.
La réaction colorée est lue à une longueur d'onde de 570 nm par un Multiskan Titertek (Flow Laboratories) et exprimée en densité optique.

collagène de type I = tested on: collagène de type I
Description: as §1, §2, §3, §4, §5

O=C(O)[C@@H]1C[C@@H](O)CN1 [Hydroxyproline libre, Hydroxyproline]
fold induction at 10 µg/mL (collagène de type III; Skin fibroblast, Temps : 48 h, 10 µg/ml, factor of change (summary table), read-out: Synthèse collag. III): 2 | Collagénase ([1]; 10 µg/ml): = | CONCLUSION à 4.10⁵cell. (fibroblastes [2]; 10 µg/ml): Stimulant sélectif du collagène I | Cytotoxicité Test MTT (fibroblastes [3]; Temps : 48 h, 10 µg/ml): non | Prolifération (fibroblastes [3]; Temps : 48 h, 10 µg/ml, factor of change (summary table)): =

CCCCCCCCCCCCCCCC(=O)OC[C@H](O)[C@H]1OC(=O)C(O)=C1O [palmitate d'ascorbyle en solution, palmitate d'ascorbyle]
fold induction at 25 µg/mL (collagène de type III; Skin fibroblast, Temps : 48 h, 25 µg/ml, factor of change (summary table), read-out: Synthèse collag. III): 30 | Collagénase ([1]; 25 µg/ml): = | CONCLUSION à 4.10⁵cell. (fibroblastes [2]; 25 µg/ml): Stimulants non sélectifs | Cytotoxicité Test MTT (fibroblastes [3]; Temps : 48 h, 25 µg/ml): non

Palmitate d'hydroxyproline [Palmitate d'hydroxyproline Solution]
synthèse de collagène type III par des fibroblastes traités avec le palmitate d'hydroxyproline (collagène de type III; 24 heures, 1 µg/ml): 295 ± 24 ng/mL | synthèse de collagène type III par des fibroblastes traités avec le palmitate d'hydroxyproline (collagène de type III; 24 heures, 5 µg/ml): 281 ± 16 ng/mL | synthèse de collagène type III par des fibroblastes traités avec le palmitate d'hydroxyproline (collagène de type III; 48 heures, 1 µg/ml): 588 ± 69 ng/mL | synthèse de collagène type III par des fibroblastes traités avec le palmitate d'hydroxyproline (collagène de type III; 48 heures, 5 µg/ml): 519 ± 20 ng/mL | synthèse de collagène type III par des fibroblastes traités avec le palmitate d'hydroxyproline (collagène de type III; 72 heures, 1 µg/ml): 628 ± 161 ng/mL | synthèse de collagène type III par des fibroblastes traités avec le palmitate d'hydroxyproline (collagène de type III; 72 heures, 5 µg/ml): 548 ± 24 ng/mL | synthèse de collagène type I par des fibroblastes traités avec le palmitate d'hydroxyproline (collagène de type I; 24 heures, 1 µg/ml): 268 ± 18 ng/mL | synthèse de collagène type I par des fibroblastes traités avec le palmitate d'hydroxyproline (collagène de type I; 24 heures, 5 µg/ml): 232 ± 10 ng/mL | synthèse de collagène type I par des fibroblastes traités avec le palmitate d'hydroxyproline (collagène de type I; 48 heures, 1 µg/ml): 519 ± 37 ng/mL | synthèse de collagène type I par des fibroblastes traités avec le palmitate d'hydroxyproline (collagène de type I; 72 heures, 1 µg/ml): 513 ± 77 ng/mL | synthèse de collagène type I par des fibroblastes traités avec le palmitate d'hydroxyproline (collagène de type I; 72 heures, 5 µg/ml): 470 ± 5 ng/mL | Collagénase ([1]; 40 µg/ml): = | dose qui stimule de manière significative la synthèse de la collagénase ([1]; cultures de fibroblastes): 1 µg/mL | CONCLUSION à 4.10⁵cell. (fibroblastes [2]; 40 µg/ml): inhibit. des collagènes. | prolifération des fibroblastes traités avec le Palmitate d'hydroxyproline (fibroblastes [3]; 24 heures, 1 µg / ml): 0,493 ± 0,029 densité optique | prolifération des fibroblastes traités avec le Palmitate d'hydroxyproline (fibroblastes [3]; 24 heures, 5 µg / ml): 0,492 ± 0,016 densité optique | prolifération des fibroblastes traités avec le Palmitate d'hydroxyproline (fibroblastes [3]; 24 heures, 10 µg / ml): 0,502 ± 0,019 densité optique | prolifération des fibroblastes traités avec le Palmitate d'hydroxyproline (fibroblastes [3]; 24 heures, 20 µg / ml): 0,457 ± 0,022 densité optique | prolifération des fibroblastes traités avec le Palmitate d'hydroxyproline (fibroblastes [3]; 48 heures, 1 µg / ml): 0,494 ± 0,012 densité optique | prolifération des fibroblastes traités avec le Palmitate d'hydroxyproline (fibroblastes [3]; 48 heures, 5 µg / ml): 0,513 ± 0,025 densité optique | prolifération des fibroblastes traités avec le Palmitate d'hydroxyproline (fibroblastes [3]; 48 heures, 10 µg / ml): 0,511 ± 0,020 densité optique | prolifération des fibroblastes traités avec le Palmitate d'hydroxyproline (fibroblastes [3]; 48 heures, 20 µg / ml): 0,471 ± 0,028 densité optique | prolifération des fibroblastes traités avec le Palmitate d'hydroxyproline (fibroblastes [3]; 72 heures, 1 µg / ml): 0,490 ± 0,019 densité optique | prolifération des fibroblastes traités avec le Palmitate d'hydroxyproline (fibroblastes [3]; 72 heures, 5 µg / ml): 0,500 ± 0,028 densité optique | prolifération des fibroblastes traités avec le Palmitate d'hydroxyproline (fibroblastes [3]; 72 heures, 10 µg / ml): 0,496 ± 0,017 densité optique | dose à partir de laquelle une cytotoxicité est détectée (fibroblastes [3]; human, skin fibroblasts): ≥ 20 µg/mL
